Test [1] deals with 5-hydroxytryptamine receptor 2A (Homo sapiens) (UniProt P28223). Kind of test: Antagonist activity at human 5-HT2A receptor assessed as inhibition of 5-HT-induced mobilization of internal calcium at 10 uM by FLIPR assay. The test is classed as functional.
The target in test [2] is T1, Alpha-1A adrenergic receptor (Homo sapiens) (UniProt P35348).
T1 sequence (whole entry): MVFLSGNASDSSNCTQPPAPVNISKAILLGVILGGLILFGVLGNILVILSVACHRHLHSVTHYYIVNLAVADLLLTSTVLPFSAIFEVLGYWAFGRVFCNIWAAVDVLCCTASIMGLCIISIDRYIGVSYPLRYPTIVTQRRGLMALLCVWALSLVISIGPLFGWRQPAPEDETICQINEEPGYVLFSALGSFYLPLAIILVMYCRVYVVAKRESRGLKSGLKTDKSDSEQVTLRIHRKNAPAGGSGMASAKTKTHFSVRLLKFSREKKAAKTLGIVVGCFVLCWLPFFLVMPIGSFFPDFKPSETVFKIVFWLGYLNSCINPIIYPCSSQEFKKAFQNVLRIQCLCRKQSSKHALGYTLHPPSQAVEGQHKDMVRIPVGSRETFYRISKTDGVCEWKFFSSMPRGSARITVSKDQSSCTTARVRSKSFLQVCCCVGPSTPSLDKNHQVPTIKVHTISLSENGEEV
As to the kind of experiment: Antagonist activity at alpha1A adrenergic receptor (unknown origin) assessed as inhibition of mobilization of internal calcium at 10 uM by FLIPR assay. It counts as functional.

For the next test, the species on record is Homo sapiens. Kind of test: Selectivity ratio of Ke for human 5-HT2A receptor to Ke for alpha1A adrenergic receptor (unknown origin).

Sequence of 5-hydroxytryptamine receptor 2A (Homo sapiens) (P28223 whole entry): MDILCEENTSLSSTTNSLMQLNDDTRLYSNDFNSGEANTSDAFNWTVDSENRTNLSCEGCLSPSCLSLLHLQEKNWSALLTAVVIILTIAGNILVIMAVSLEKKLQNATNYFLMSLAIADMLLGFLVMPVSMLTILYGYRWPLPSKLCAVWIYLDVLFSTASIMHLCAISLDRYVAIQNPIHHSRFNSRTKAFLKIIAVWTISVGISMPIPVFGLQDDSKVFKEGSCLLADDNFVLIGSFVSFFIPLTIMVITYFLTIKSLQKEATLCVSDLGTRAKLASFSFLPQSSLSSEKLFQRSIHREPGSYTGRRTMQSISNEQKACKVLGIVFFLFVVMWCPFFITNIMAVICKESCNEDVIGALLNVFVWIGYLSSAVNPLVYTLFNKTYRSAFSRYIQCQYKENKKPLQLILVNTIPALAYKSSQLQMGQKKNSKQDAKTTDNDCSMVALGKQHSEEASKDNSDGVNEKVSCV

In the case of `C=CCOc1ccc2c3c1-c1cc4c(cc1CC3N(C)CC2)OCO4` (stereo unspecified), the Ke in test [1] was 47 nM; in test [2] it was 744 nM. In addition, the Ratio Ke in the test filed under Homo sapiens was found to be 0.06.
With `COc1cc2c3c(c1OC)-c1cc4c(cc1C[C@@H]3N(C)CC2)OCO4`, the values for the Ke in test [1] and in test [2] were 657 nM and 196 nM, respectively. Besides, the Ratio Ke in the test listed under Homo sapiens was 3.4.
For the compound `CN1CCc2ccc(O)c3c2C1Cc1cc2c(cc1-3)OCO2` (stereo unspecified), the Ke is over 3000 nM in test [1] and 2950 nM in test [2].
As to `C=CCOc1c(OC)cc2c3c1-c1cc4c(cc1CC3OCC2)OCO4` (stereo unspecified), the Ke in test [1] and in test [2] was over 3000 nM in each case.
As for `COc1cc2c3c(c1OC)-c1cc4c(cc1CC3OCC2)OCO4` (stereo unspecified), the Ke in test [1] and in test [2] was over 3000 nM throughout.
For the compound `C=CCc1cc2c3c(c1OCC1CC1)-c1cc4c(cc1CC3N(C)CC2)OCO4` (stereo unspecified), the Ke in test [1] was 963 nM; in test [2], over 3000 nM. The Ratio Ke in the test filed under Homo sapiens was under 0.32.
The corresponding values for `C=CCc1cc2c3c(c1OC)-c1cc4c(cc1CC3N(C)CC2)OCO4` (stereo unspecified) are 485 nM, 566 nM and 0.85.
`COc1cc2c3c(c1OC)-c1cc4c(cc1C[C@H]3N(C)CC2)OCO4`: the Ke came to 946 nM in test [1] and 70 nM in test [2]. In addition, the Ratio Ke in the test filed under Homo sapiens worked out at 13.5.
The corresponding values for `C=CCOc1c(CC=C)cc2c3c1-c1cc4c(cc1CC3N(C)CC2)OCO4` (stereo unspecified) are 1370 nM, over 3000 nM and under 0.45.
On to `C=CCc1cc2c3c(c1O)-c1cc4c(cc1CC3N(C)CC2)OCO4` (stereo unspecified), for which the Ke in test [1] and in test [2] was over 3000 nM in each case.

The record behind these values is ChEMBL document CHEMBL3232860, “Evaluation of structural effects on 5-HT(2A) receptor antagonism by aporphines: identification of a new aporphine with 5-HT(2A) antagonist activity” (Bioorg Med Chem Lett, 2014).
